Active and inactive are the calls of the source. The calls are words filed in the database; no cut-off is given here.
Tests used:
[1] = Clearance in Sprague-Dawley rat at 3 mg/kg measured up to 24 hrs by LC/MS/MS analysis; assay type: ADME, organism-based; settings: in vivo
[2] = AUC (0 to t) in Sprague-Dawley rat at 3 mg/kg measured up to 24 hrs by LC-MS/MS analysis; assay type: ADME, organism-based; set-up: dose 3 mg/kg, time <=24; settings: in vivo
[3] = AUC (0 to t) in Sprague-Dawley rat at 10 mg/kg, po measured up to 24 hrs by LC-MS/MS analysis; assay type: ADME, organism-based; set-up: route oral, dose 10 mg/kg, time <=24; settings: in vivo
[4] = Toxicity in mouse xenografted with mouse BaF3 cells transfected with LMNA-NTRK1 assessed as death at 100 mg/kg, po administered once daily for 21 days and measured twice weekly; settings: in vivo, 504 h
[5] = Toxicity in mouse xenografted with mouse BaF3 cells transfected with LMNA-NTRK1 assessed as weight loss at 100 mg/kg, po administered once daily for 21 days and measured twice weekly; settings: in vivo, 504 h
[6] = Toxicity in mouse xenografted with mouse BaF3 cells transfected with LMNA-NTRK1 assessed as unkempt appearance at 100 mg/kg, po administered once daily for 21 days and measured twice weekly; settings: in vivo, 504 h
[7] = Toxicity in mouse xenografted with mouse BaF3 cells transfected with ETV6-NTRK3 assessed as unkempt appearance at 100 mg/kg, po administered once daily for 21 days and measured twice weekly; settings: in vivo, 504 h
[8] = Toxicity in mouse xenografted with mouse BaF3 cells transfected with LMNA-NTRK1-G595R mutant assessed as weight loss at 100 mg/kg, po administered once daily for 21 days and measured twice weekly; settings: in vivo, 504 h
BaF3 [9] = assay: Antitumor activity against mouse BaF3 cells transfected with LMNA-NTRK1 xenografted in mouse assessed as tumor growth inhibition at 100 mg/kg, po administered once daily for 21 days and measured twice weekly; settings: time 21.0 day
BaF3 [10] = assay: Antitumor activity against mouse BaF3 cells transfected with ETV6-NTRK3-G623R mutant xenografted in mouse assessed as tumor growth inhibition at 100 mg/kg, po administered once daily for 21 days and measured twice weekly; settings: time 21.0 day
[11] = tested on: Tyrosine-protein kinase Blk (Homo sapiens), P51451 [UNDEFINED MUTATION]; assay: Inhibition of full-length recombinant human BLK M287V mutant assessed as residual activity at 0.5 uM using poly(Glu, Tyr) 4:1 as substrate measured after 40 mins in presence of [gamma33P]ATP by scintillation counting method relative to control
[12] = tested on: Tyrosine-protein kinase BTK (Homo sapiens), Q06187 [R28H]; assay: Inhibition of recombinant full length human BTK R28H mutant assessed as residual activity at 0.5 uM using LSNLYHQGKFLQT as substrate incubated for 40 mins in presence of [gamma-33P]-ATP by scintillation counting method relative to control
[13] = tested on: RAF proto-oncogene serine/threonine-protein kinase (Homo sapiens), P04049 [Y340D,Y341D]; assay: Inhibition of recombinant human C-Raf Y340D/Y341D double mutant (306 to end residues) assessed as residual activity at 0.5 uM poly(Glu, Tyr) 4:1 as substrate incubated 40 mins in presence of [gamma-33ATP] by scintillation counting based radiometry assay relative to control
[14] = biological target: Epidermal growth factor receptor (Homo sapiens) (UniProt P00533); assay: Inhibition of recombinant human EGFR (696 to end residues) assessed as residual activity at 0.5 uM using poly(Glu, Tyr) 4:1 as substrate at 40 mins in presence of [gamma-33ATP] by scintillation counting based radiometry assay relative to control
[15] = biological target: Proto-oncogene tyrosine-protein kinase receptor Ret (Homo sapiens) (UniProt P07949); assay: Inhibition of recombinant human Ret (658 to end residues) assessed as residual activity at 0.5 uM using KKKSPGEYVNIEFG as substrate incubated for 40 mins in presence of [gamma33P]ATP by scintillation counting based radiometry assay relative to control
Chain of Proto-oncogene tyrosine-protein kinase receptor Ret (Homo sapiens) (P07949 whole entry, the tested form may be a part): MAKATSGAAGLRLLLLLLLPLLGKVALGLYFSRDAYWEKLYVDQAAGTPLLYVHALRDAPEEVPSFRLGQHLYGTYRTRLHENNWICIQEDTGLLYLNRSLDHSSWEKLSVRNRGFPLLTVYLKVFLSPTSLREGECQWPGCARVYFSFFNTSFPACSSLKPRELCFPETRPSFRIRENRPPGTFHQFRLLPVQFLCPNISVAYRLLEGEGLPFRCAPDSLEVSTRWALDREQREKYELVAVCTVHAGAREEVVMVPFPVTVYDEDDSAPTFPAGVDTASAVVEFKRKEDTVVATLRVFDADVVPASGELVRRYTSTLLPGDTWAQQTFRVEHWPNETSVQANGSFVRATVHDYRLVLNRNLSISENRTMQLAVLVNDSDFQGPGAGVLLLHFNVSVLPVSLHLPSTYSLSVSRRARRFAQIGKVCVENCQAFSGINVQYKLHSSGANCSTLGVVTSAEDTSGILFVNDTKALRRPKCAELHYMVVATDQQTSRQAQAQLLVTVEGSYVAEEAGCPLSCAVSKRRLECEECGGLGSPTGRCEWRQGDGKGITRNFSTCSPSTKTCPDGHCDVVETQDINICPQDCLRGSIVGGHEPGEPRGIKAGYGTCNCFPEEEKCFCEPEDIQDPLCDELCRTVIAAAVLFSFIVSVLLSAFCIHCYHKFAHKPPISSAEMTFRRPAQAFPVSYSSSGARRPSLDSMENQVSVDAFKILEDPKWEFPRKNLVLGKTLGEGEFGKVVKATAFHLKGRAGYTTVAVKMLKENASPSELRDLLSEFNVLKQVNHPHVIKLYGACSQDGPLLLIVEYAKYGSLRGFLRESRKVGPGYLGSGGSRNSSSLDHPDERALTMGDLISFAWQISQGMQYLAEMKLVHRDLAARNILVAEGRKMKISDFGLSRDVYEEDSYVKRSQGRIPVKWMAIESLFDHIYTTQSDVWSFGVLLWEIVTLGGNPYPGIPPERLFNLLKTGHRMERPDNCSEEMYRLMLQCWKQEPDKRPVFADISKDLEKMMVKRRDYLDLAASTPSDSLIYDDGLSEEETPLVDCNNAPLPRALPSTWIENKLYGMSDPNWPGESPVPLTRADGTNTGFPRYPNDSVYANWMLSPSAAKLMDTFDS

[16] = biological target: Receptor-interacting serine/threonine-protein kinase 1 (Homo sapiens) (UniProt Q13546); assay: Inhibition of recombinant human RIPK1 (8 to 322 residues) assessed as residual activity at 0.5 uM using myelin basic protein as substrate incubated for 40 mins in presence of [gamma33P]ATP by scintillation counting based radiometry assay relative to control
Chain of Receptor-interacting serine/threonine-protein kinase 1 (Homo sapiens) (Q13546 whole entry, the tested form may be a part): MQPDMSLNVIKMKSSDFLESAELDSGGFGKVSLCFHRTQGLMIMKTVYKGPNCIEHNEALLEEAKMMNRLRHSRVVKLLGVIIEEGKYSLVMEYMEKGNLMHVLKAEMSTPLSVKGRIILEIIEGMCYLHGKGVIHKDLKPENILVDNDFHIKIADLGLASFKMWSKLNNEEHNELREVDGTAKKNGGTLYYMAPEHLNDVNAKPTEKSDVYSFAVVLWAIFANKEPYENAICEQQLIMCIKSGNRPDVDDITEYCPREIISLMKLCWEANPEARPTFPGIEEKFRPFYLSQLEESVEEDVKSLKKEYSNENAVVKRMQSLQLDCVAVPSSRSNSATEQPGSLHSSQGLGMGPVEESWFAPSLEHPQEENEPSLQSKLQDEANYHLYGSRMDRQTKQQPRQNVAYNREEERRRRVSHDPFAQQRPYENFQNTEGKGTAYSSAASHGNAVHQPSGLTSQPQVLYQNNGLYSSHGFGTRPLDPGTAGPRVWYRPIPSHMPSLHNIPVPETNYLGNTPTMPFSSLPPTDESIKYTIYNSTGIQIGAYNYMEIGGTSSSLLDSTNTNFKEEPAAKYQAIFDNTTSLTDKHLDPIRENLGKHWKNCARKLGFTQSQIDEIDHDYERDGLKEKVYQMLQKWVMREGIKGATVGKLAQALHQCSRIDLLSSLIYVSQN

[17] = biological target: Proto-oncogene tyrosine-protein kinase Src (Homo sapiens) (UniProt P12931); assay: Inhibition of human Src (1 to 530 residues) assessed as residual activity at 0.5 uM using GGEEEEYFELVKKKK as substrate measured after 40 mins in presence of [gamma33P]ATP by scintillation counting method relative to control
[18] = tested on: Proto-oncogene tyrosine-protein kinase Src (Homo sapiens), P12931 [T341M]; assay: Inhibition of recombinant full-length human Src T341M mutant assessed as residual activity at 0.5 uM using GGEEEEYFELVKKKK as substrate measured after 40 mins in presence of [gamma33P]ATP by scintillation counting method relative to control
[19] = biological target: NT-3 growth factor receptor (Homo sapiens, UniProt Q16288); assay: Inhibition of human TrkC (510 to end residues) assessed as residual activity at 0.5 uM using GEEPLYWSFPAKKK as substrate measured after 40 mins in presence of [gamma33P]ATP by scintillation counting method relative to control
Chain of NT-3 growth factor receptor (Q16288 32-839 limits assumed): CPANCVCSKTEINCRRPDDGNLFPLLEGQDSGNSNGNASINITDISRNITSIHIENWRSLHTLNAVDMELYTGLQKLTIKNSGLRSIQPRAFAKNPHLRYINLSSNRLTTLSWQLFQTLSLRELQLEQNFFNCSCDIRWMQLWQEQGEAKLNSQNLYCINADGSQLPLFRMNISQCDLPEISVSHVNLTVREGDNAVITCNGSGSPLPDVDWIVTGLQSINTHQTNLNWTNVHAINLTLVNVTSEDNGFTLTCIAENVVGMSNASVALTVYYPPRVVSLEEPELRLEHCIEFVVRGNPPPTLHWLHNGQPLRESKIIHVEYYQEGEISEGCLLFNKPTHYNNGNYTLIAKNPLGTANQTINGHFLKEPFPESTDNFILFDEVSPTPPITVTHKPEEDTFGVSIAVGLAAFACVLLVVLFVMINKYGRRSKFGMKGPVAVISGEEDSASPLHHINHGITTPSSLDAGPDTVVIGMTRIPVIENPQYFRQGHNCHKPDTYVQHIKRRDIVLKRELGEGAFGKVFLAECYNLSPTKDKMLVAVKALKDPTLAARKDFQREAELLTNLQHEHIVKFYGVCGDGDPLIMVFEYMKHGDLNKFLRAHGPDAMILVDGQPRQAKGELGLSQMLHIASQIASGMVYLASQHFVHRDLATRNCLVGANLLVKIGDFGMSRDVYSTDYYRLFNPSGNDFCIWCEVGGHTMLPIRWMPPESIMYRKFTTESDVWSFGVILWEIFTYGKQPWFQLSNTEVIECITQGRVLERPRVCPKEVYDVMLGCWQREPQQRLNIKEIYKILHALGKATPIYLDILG

[20] = Half life in male Sprague-Dawley rat at 2 mg/kg, iv measured up to 24 hrs by LC-MS/MS analysis; assay type: ADME, organism-based; settings: in vivo
[21] = Clearance in female Sprague-Dawley rat at 2 mg/kg, iv measured up to 24 hrs by LC/MS/MS analysis; assay type: ADME, organism-based; settings: in vivo
[22] = Tmax in female Sprague-Dawley rat at 10 mg/kg, po measured up to 24 hrs by LC-MS analysis; assay type: ADME, organism-based; settings: in vivo
[23] = AUC (0 to t) in female Sprague-Dawley rat at 10 mg/kg, po measured up to 24 hrs by LC-MS/MS analysis; assay type: ADME, organism-based; set-up: route oral, dose 10 mg/kg, time <=24; settings: in vivo
[24] = Oral bioavailability in male Sprague-Dawley rat at 10 mg/kg measured up to 24 hrs by LC/MS/MS analysis; assay type: ADME, organism-based; settings: in vivo
[25] = Toxicity in […] xenografted with mouse BaF3 cells transfected with ETV6-NTRK3 assessed as weight loss at 20 mg/kg, po administered once daily for 21 days and measured twice weekly; assay type: organism-based; settings: in vivo, 504 h, time 21 day
[26] = biological target: ALK tyrosine kinase receptor (Homo sapiens, UniProt Q9UM73)
Description: Inhibition of ALK (unknown origin) incubated for 120 mins in presence of 33P-ATP

[27] = biological target: Proto-oncogene tyrosine-protein kinase ROS (Homo sapiens, UniProt P08922)
Chain of Proto-oncogene tyrosine-protein kinase ROS (P08922 whole entry): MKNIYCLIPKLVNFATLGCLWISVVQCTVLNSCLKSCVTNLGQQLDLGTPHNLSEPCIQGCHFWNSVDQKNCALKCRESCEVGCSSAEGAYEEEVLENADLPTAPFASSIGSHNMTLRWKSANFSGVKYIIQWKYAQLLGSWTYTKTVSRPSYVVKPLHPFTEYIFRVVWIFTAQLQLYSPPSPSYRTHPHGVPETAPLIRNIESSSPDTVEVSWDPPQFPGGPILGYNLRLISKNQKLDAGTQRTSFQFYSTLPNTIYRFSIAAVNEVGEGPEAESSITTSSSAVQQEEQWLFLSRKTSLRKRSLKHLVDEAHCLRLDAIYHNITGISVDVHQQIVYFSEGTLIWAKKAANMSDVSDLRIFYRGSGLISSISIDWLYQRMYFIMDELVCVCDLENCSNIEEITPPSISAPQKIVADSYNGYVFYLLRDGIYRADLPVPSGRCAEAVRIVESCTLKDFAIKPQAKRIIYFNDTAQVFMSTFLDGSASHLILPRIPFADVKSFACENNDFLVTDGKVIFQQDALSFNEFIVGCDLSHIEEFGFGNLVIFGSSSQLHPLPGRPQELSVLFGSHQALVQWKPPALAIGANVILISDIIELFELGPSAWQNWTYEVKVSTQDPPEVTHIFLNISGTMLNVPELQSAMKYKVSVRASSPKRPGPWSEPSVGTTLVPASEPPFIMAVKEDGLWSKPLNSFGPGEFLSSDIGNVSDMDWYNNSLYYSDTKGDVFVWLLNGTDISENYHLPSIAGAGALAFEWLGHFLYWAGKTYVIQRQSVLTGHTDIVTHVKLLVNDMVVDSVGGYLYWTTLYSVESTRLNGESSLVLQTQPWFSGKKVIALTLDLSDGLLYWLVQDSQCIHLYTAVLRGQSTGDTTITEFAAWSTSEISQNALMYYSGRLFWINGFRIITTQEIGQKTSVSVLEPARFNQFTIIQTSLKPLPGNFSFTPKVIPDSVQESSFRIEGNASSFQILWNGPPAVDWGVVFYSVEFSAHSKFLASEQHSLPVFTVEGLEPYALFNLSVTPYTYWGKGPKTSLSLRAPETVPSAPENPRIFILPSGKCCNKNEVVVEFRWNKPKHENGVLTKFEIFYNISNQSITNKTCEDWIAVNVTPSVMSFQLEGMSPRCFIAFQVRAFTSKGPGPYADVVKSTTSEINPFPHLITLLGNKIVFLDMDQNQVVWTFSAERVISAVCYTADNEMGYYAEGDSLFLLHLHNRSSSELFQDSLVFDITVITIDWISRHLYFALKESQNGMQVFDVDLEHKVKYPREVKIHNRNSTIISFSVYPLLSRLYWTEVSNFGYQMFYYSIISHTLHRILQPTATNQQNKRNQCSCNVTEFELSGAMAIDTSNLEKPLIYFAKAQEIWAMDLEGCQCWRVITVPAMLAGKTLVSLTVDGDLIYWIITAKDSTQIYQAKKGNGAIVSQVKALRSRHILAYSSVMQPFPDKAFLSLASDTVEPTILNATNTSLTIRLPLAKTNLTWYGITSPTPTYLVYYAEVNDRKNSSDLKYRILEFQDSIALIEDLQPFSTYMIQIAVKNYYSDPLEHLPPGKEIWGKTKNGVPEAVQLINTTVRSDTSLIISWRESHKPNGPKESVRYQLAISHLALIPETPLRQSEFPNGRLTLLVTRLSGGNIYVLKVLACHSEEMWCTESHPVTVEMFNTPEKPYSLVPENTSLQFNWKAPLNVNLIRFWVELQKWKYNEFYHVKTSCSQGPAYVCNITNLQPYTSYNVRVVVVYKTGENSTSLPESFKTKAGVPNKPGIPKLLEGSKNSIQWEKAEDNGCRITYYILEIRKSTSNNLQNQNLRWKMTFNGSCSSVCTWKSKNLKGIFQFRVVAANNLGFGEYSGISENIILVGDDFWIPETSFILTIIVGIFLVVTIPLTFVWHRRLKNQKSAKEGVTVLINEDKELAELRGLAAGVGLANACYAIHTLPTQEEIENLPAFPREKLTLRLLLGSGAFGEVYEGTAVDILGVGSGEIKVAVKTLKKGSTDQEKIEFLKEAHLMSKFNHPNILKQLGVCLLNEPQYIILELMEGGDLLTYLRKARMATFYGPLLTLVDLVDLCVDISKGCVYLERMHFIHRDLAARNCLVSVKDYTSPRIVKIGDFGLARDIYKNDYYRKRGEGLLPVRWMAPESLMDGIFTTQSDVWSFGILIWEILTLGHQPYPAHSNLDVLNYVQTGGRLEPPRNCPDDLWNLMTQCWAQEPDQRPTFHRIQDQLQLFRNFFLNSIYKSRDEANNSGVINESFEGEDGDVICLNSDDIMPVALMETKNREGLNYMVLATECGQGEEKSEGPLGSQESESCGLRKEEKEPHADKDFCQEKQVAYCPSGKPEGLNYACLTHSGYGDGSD
Description: Inhibition of ROS1 (unknown origin) incubated for 120 mins in presence of 33P-ATP

in vitro = settings: human, Caco-2
Description: Efflux ratio of apparent permeability from basolateral to apical over apical to basolateral side in human Caco2 cells incubated for 2 hrs by LC-MS/MS analysis

SMILES: C[C@@H]1CCc2ncc(F)cc2[C@H]2CCCN2c2ccn3ncc(c3n2)C(=O)N1 [SELITRECTINIB]
- clearance [1]: 11.8 mL/min/kg
- AUC(0-t) at 24 h [2]: 11.1 µM·h
- AUC(0-t) at 24 h [3]: 27.3 µM·h
- Activity [4]: Toxic
- Activity [5]: Toxic
- Activity [6]: Toxic
- Activity [7]: Toxic
- Activity [8]: Toxic
- Activity (BaF3 [9]): Active
- Activity (BaF3 [10]): Active

SMILES: O=C1NC2(CC2)COc2ncc(F)cc2[C@H]2COCCN2c2ccn3ncc1c3n2
- Activity [11]: 46%
- Activity [12]: 74%
- Activity [13]: 103%
- Activity [14]: 108%
- Activity [15]: 64%
- Activity [16]: 102%
- Activity [17]: 33%
- Activity [18]: 55%
- Activity [19]: -3%
- half-life [20]: 52.3 min
- clearance [21]: 8.19 mL/min/kg
- Tmax [22]: 40 min
- AUC(0-t) at 24 h [23]: 31.7 µM·h
- bioavailability [24]: 56%
- Activity [25]: Toxic
- IC50 [26]: 182 nM
- IC50 [27]: 1 nM
- efflux ratio at 2 h (in vitro): 2.8

Reference: ChEMBL document CHEMBL5034019, “Discovery of the Next-Generation Pan-TRK Kinase Inhibitors for the Treatment of Cancer” (J Med Chem, 2021)
